Data published in paper PMC8162404, “Proteomimetic surface fragments distinguish targets by function” (Chemical Science, 2020).
Like-named read-outs stand apart in the source and are kept apart here.

Legend:
Experiment in all cases: Pull-down assay with immobilized protein and LSM libraries
Gal-1 = target: T1, Gal-1 (Homo sapiens, UniProt P09382); assay type: binding; conditions: 1:1 binding assumed, read-out: Surface mapping KD (apparent)
T1 construct: made in house; host or cells: E. coli BL21(DE3)
T1 sequence (P09382 whole entry): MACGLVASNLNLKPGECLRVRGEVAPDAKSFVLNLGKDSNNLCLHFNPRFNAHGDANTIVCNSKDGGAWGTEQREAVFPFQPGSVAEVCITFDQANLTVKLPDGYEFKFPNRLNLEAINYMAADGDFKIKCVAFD
Procedure, shortened: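 His-tagged protein immobilized on Co-NTA resin (64 µM) in 20 mM HEPES pH 7.4, 150 mM NaCl, equilibrated 30 min at room temperature with foldamer LSM sublibraries at equimolar total concentration. Unbound fractions quantified by HPLC-MS versus protein-free resin control; apparent KD assumes 1:1 binding.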

S100B = target: T2, S100B (Homo sapiens, UniProt P04271); assay type: binding; conditions: 1:1 binding assumed, read-out: Surface mapping KD (apparent)
T2 construct: made in house; host or cells: Escherichia coli BL21(DE3)
T2 sequence (P04271 1-92): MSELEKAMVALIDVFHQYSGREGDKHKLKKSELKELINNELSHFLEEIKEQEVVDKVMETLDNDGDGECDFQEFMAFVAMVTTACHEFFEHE
Procedure, shortened: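 Buffers were HEPES pH 7.4 with 150 mM NaCl, plus 1 mM TCEP and 1 mM CaCl2 (50 mM HEPES) for S100A4 and S100B, 1 mM TCEP for Gal-1, and no additive for RecQ-WH. Immobilized protein at 64 µM was equilibrated 30 min with the LSM sublibrary, and unbound probes were measured by LC-MS.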

CaM = target: T3, CaM (Bos taurus, UniProt P62157); assay type: binding, bovine; conditions: 1:2 stoichiometry assumed, read-out: Surface mapping KD (apparent)
T3 construct: made in house; host or cells: E. coli BL21 (DE3)
Procedure: Pull-down assays with immobilized test proteins and foldameric LSM libraries were carried out. Proteins were equilibrated with LSM probes, and equilibrium bound fractions (FB) were determined from the unbound fractions measured by HPLC-MS methods. Hits were corrected with background binding of the resin. The protocol allowed all binding events to equilibrate irrespective of affinity, specificity, and binding kinetics. This was essential to judge overall druggability and promiscuity. Importantly, the concentration of protein and the total concentration of foldameric LSMs were equimolar, which minimized competition between the probes. This experimental setup approximated independent binding of individual library members. Results were visualized as heat maps of dissociation constants (Fig. 3).
Pull-down assay and data analysis
Pull-down assay. LSM sublibraries were screened separately as previously described.(2) Experiments were performed in the following buffers: (i) 20 mM pH 7.4 HEPES, 150 mM NaCl, 5 mM CaCl2 for CaM; (ii) 50 mM pH 7.4 HEPES, 150 mM NaCl, 1 mM TCEP, 1 mM CaCl2 for S100 proteins; (iii) 20 mM pH 7.4 HEPES, 150 mM NaCl, 1 mM TCEP for Gal-1 and (iv) 20 mM pH 7.4 HEPES, 150 mM NaCl for RecQ-WH. Assays were performed in paper filter spin cups (Thermo Scientific) with sample volumes of 100 µl. Hexahistidine-tagged proteins were immobilized on previously washed Co-NTA resin (TALON, Takara Bio USA, Inc., […]
LSM sublibrary was added, in which each of the 64 library members were used at a concentration of 1 µM. Samples were incubated at room temperature for 30 min with shaking at 100 rpm. Then, samples were centrifuged at 1000 rpm for 2 min and washed with 100 µl pull-down buffer to remove unbound compounds.
The control experiments were performed using the same compounds and the resin but without the immobilized protein. In case of competitive assays, competitor peptides were added to LSM sublibrary samples in 200 µM final concentration. In the case of Gal-1, lactose (competitor) was used in a concentration of 10 mM. Experiments were performed at least twice. Mean […]
LC-MS methods and parameters. HPLC/ESI-MS analysis was used to characterize the samples from the pull-down assay. LC-MS analysis was performed with a Thermo Scientific Dionex UltiMate 3000 HPLC system interfaced to an LTQ ion trap mass spectrometer (Thermo Electron Corp., San Jose, CA, USA). Samples were injected onto an Aeris Widepore XB-C18 (250 x 4.6 mm) analytical HPLC column using gradient elution 5-80 % solution B during 25 minutes. For pull-down samples, eluent composition was 0.1% acetic acid in distilled water (Solution A) and 0.1% acetic acid in acetonitrile (solution B). Mass spectra were acquired in full scan mode from 200 to 2000 m/z range. For overlapping peaks, selective reaction monitoring (SRM) was […]
MS data analysis. Thermo Xcalibur 2.2 software was used for peak identification and integration. The majority of the foldameric fragments could be resolved independently via HPLC-MS/MS measurements based on molecular weight, MS fragmentation pattern and retention time. Peaks of some foldamers with β3-hIle or β3-hLeu in position R2 could not be resolved, these were integrated and averaged. In the processing method, each sample component was associated to a chromatographic peak based on previously identified mass (m/z) and retention time (ref (2) and Table S7-10). Using ICIS peak detection algorithm, the general detection and integration criteria were: smoothing points: 5, baseline window: 80, area noise factor: 5, peak noise factor: 10. Using these processing setups, all raw data files were reprocessed together and analyzed. Errors in peak identification during the automatic processing were corrected manually.
Calculation of the discussed parameters
1. Bound fractions (FB.) were calculated from the HPLC-MS intensity loss of the LSM probes compared to the control where no protein was immobilized to the resin: […]

Kd (S100B; H12 library)	Kd (CaM; H12 library)	Structure (SMILES)	further results
62 µM	234 µM	C[C@@H](CC(=O)N[C@H]1CCC[C@@H]1C(=O)N[C@H]1CCC[C@@H]1C(=O)N[C@H](CC(=O)N[C@H]1CCC[C@@H]1C(=O)N[C@H]1CCC[C@@H]1C(N)=O)Cc1c[nH]c2ccccc12)NC(=O)[C@H]1CCC[C@@H]1NC(=O)[C@H]1CCC[C@@H]1N [H12 AW]	Kd (Gal-1; H12 library): 355 µM
116 µM	496 µM	C[C@@H](CC(=O)N[C@H]1CCC[C@@H]1C(=O)N[C@H]1CCC[C@@H]1C(N)=O)NC(=O)[C@H]1CCC[C@@H]1NC(=O)[C@H]1CCC[C@@H]1NC(=O)C[C@H](Cc1ccccc1)NC(=O)[C@H]1CCC[C@@H]1NC(=O)[C@H]1CCC[C@@H]1N [H12 FA]	Kd (Gal-1; H12 library): 341 µM
39 µM	236 µM	CC[C@H](C)[C@@H](CC(=O)N[C@H]1CCC[C@@H]1C(=O)N[C@H]1CCC[C@@H]1C(=O)N[C@@H](CCCNC(=N)N)CC(=O)N[C@H]1CCC[C@@H]1C(=O)N[C@H]1CCC[C@@H]1C(N)=O)NC(=O)[C@H]1CCC[C@@H]1NC(=O)[C@H]1CCC[C@@H]1N [H12 IR]	Kd (Gal-1; H12 library): 120 µM
71 µM	314 µM	CC[C@H](C)[C@@H](CC(=O)N[C@H]1CCC[C@@H]1C(=O)N[C@H]1CCC[C@@H]1C(N)=O)NC(=O)[C@H]1CCC[C@@H]1NC(=O)[C@H]1CCC[C@@H]1NC(=O)C[C@H](CCCCN)NC(=O)[C@H]1CCC[C@@H]1NC(=O)[C@H]1CCC[C@@H]1N [H12 KI]	Kd (Gal-1; H12 library): 250 µM
368 µM	162 µM	NC(=O)C[C@@H](CC(=O)N[C@H]1CCC[C@@H]1C(=O)N[C@H]1CCC[C@@H]1C(=O)N[C@H](CC(=O)N[C@H]1CCC[C@@H]1C(=O)N[C@H]1CCC[C@@H]1C(N)=O)Cc1ccccc1)NC(=O)[C@H]1CCC[C@@H]1NC(=O)[C@H]1CCC[C@@H]1N [H12 NF]	–
155 µM	63 µM	NC(=O)C[C@@H](CC(=O)N[C@H]1CCC[C@@H]1C(=O)N[C@H]1CCC[C@@H]1C(=O)N[C@H](CC(=O)N[C@H]1CCC[C@@H]1C(=O)N[C@H]1CCC[C@@H]1C(N)=O)Cc1c[nH]c2ccccc12)NC(=O)[C@H]1CCC[C@@H]1NC(=O)[C@H]1CCC[C@@H]1N [H12 NW]	–
461 µM	181 µM	NC(=O)CC[C@@H](CC(=O)N[C@H]1CCC[C@@H]1C(=O)N[C@H]1CCC[C@@H]1C(=O)N[C@H](CC(=O)N[C@H]1CCC[C@@H]1C(=O)N[C@H]1CCC[C@@H]1C(N)=O)Cc1ccccc1)NC(=O)[C@H]1CCC[C@@H]1NC(=O)[C@H]1CCC[C@@H]1N [H12 QF]	–
189 µM	153 µM	NC(=O)[C@H]1CCC[C@@H]1NC(=O)[C@H]1CCC[C@@H]1NC(=O)C[C@H](Cc1ccccc1)NC(=O)[C@H]1CCC[C@@H]1NC(=O)[C@H]1CCC[C@@H]1NC(=O)C[C@H](CO)NC(=O)[C@H]1CCC[C@@H]1NC(=O)[C@H]1CCC[C@@H]1N [H12 SF]	–
419 µM	252 µM	CC[C@H](C)[C@@H](CC(=O)N[C@H]1CCC[C@@H]1C(=O)N[C@H]1CCC[C@@H]1C(N)=O)NC(=O)[C@H]1CCC[C@@H]1NC(=O)[C@H]1CCC[C@@H]1NC(=O)C[C@H](CO)NC(=O)[C@H]1CCC[C@@H]1NC(=O)[C@H]1CCC[C@@H]1N [H12 SI]	–
419 µM	252 µM	CC(C)C[C@@H](CC(=O)N[C@H]1CCC[C@@H]1C(=O)N[C@H]1CCC[C@@H]1C(N)=O)NC(=O)[C@H]1CCC[C@@H]1NC(=O)[C@H]1CCC[C@@H]1NC(=O)C[C@H](CO)NC(=O)[C@H]1CCC[C@@H]1NC(=O)[C@H]1CCC[C@@H]1N [H12 SL]	–
185 µM	90 µM	C[C@@H](O)[C@@H](CC(=O)N[C@H]1CCC[C@@H]1C(=O)N[C@H]1CCC[C@@H]1C(=O)N[C@H](CC(=O)N[C@H]1CCC[C@@H]1C(=O)N[C@H]1CCC[C@@H]1C(N)=O)Cc1ccccc1)NC(=O)[C@H]1CCC[C@@H]1NC(=O)[C@H]1CCC[C@@H]1N [H12 TF]	–
–	447 µM	C[C@@H](O)[C@@H](CC(=O)N[C@H]1CCC[C@@H]1C(=O)N[C@H]1CCC[C@@H]1C(=O)N[C@@H](CCC(N)=O)CC(=O)N[C@H]1CCC[C@@H]1C(=O)N[C@H]1CCC[C@@H]1C(N)=O)NC(=O)[C@H]1CCC[C@@H]1NC(=O)[C@H]1CCC[C@@H]1N [H12 TQ]	–
286 µM	282 µM	C[C@@H](O)[C@@H](CC(=O)N[C@H]1CCC[C@@H]1C(=O)N[C@H]1CCC[C@@H]1C(=O)N[C@@H](CCCNC(=N)N)CC(=O)N[C@H]1CCC[C@@H]1C(=O)N[C@H]1CCC[C@@H]1C(N)=O)NC(=O)[C@H]1CCC[C@@H]1NC(=O)[C@H]1CCC[C@@H]1N [H12 TR]	–
–	208 µM	CC(C)[C@@H](CC(=O)N[C@H]1CCC[C@@H]1C(=O)N[C@H]1CCC[C@@H]1C(N)=O)NC(=O)[C@H]1CCC[C@@H]1NC(=O)[C@H]1CCC[C@@H]1NC(=O)C[C@@H](NC(=O)[C@H]1CCC[C@@H]1NC(=O)[C@H]1CCC[C@@H]1N)[C@@H](C)O [H12 TV]	–
113 µM	25 µM	C[C@@H](O)[C@@H](CC(=O)N[C@H]1CCC[C@@H]1C(=O)N[C@H]1CCC[C@@H]1C(=O)N[C@H](CC(=O)N[C@H]1CCC[C@@H]1C(=O)N[C@H]1CCC[C@@H]1C(N)=O)Cc1c[nH]c2ccccc12)NC(=O)[C@H]1CCC[C@@H]1NC(=O)[C@H]1CCC[C@@H]1N [H12 TW]	–
–	132 µM	C[C@@H](O)[C@@H](CC(=O)N[C@H]1CCC[C@@H]1C(=O)N[C@H]1CCC[C@@H]1C(=O)N[C@H](CC(=O)N[C@H]1CCC[C@@H]1C(=O)N[C@H]1CCC[C@@H]1C(N)=O)Cc1ccc(O)cc1)NC(=O)[C@H]1CCC[C@@H]1NC(=O)[C@H]1CCC[C@@H]1N [H12 TY]	–
–	–	C[C@@H](CC(=O)N[C@H]1CCCC[C@@H]1C(=O)N[C@H]1CCCC[C@@H]1C(=O)N[C@@H](CCCCN)CC(=O)N[C@H]1CCCC[C@@H]1C(N)=O)NC(=O)[C@H]1CCCC[C@@H]1N [H14 AK]	Kd (S100B; H14 library): 180 µM; Kd (CaM; H14 library): 181 µM
–	–	NCCCC[C@@H](CC(=O)N[C@H]1CCCC[C@@H]1C(=O)N[C@H]1CCCC[C@@H]1C(=O)N[C@@H](CCC(N)=O)CC(=O)N[C@H]1CCCC[C@@H]1C(N)=O)NC(=O)[C@H]1CCCC[C@@H]1N [H14 KQ]	Kd (S100B; H14 library): 173 µM; Kd (CaM; H14 library): 307 µM
–	–	NCCCC[C@@H](CC(=O)N[C@H]1CCCC[C@@H]1C(=O)N[C@H]1CCCC[C@@H]1C(=O)N[C@@H](CO)CC(=O)N[C@H]1CCCC[C@@H]1C(N)=O)NC(=O)[C@H]1CCCC[C@@H]1N [H14 KS]	Kd (S100B; H14 library): 217 µM; Kd (CaM; H14 library): 262 µM
–	–	C[C@@H](O)[C@@H](CC(=O)N[C@H]1CCCC[C@@H]1C(N)=O)NC(=O)[C@H]1CCCC[C@@H]1NC(=O)[C@H]1CCCC[C@@H]1NC(=O)C[C@H](CCCNC(=N)N)NC(=O)[C@H]1CCCC[C@@H]1N [H14 RT]	Kd (S100B; H14 library): 324 µM; Kd (CaM; H14 library): 124 µM
–	–	NC(=O)[C@H]1CCCC[C@@H]1NC(=O)C[C@H](CC(=O)O)NC(=O)[C@H]1CCCC[C@@H]1NC(=O)[C@H]1CCCC[C@@H]1NC(=O)C[C@H](CO)NC(=O)[C@H]1CCCC[C@@H]1N [H14 SD]	Kd (Gal-1; H14 library): 432 µM; Kd (CaM; H14 library): 225 µM
